This is an account of results in US6413245B1, “Sub-tenon drug delivery” (Alcon Universal Ltd., priority 1999, dated 2002).

A short description of the data set: Retinal concentration of angiostatic steroid after sub-Tenon drug depot in rabbit eyes. The format is in vivo. Conditions: drug depot on outer surface of sclera, slightly posterior of the equator, measured the day after the injection, New Zealand White rabbits. The text has this: Sclera 16 and Tenon's capsule 34 define the exterior surface of the globe of eye 10. For treatment of ARMD, CNV, retinopathies, retinitis, uveitis, cystoid macular edema (CME), glaucoma, and other diseases or conditions of posterior segment 26, it is preferable to dispose a depot 38 of a specific quantity of an ophthalmically acceptable pharmaceutically active agent directly on the outer surface of sclera 16 and below Tenon's capsule 34. In addition, in cases of ARMD and CME it is most preferable to dispose depot 38 directly on the outer surface of sclera 16, below Tenon's capsule 34, and generally above macula 30. In a study using New Zealand White rabbits, a drug depot of 4,9(11)-Pregnadien-17α,21-diol-3,20-dione-21-acetate, an angiostatic steroid available from Steraloids, Inc. of Wilton, New Hampshire, was disposed directly on the outer surface of the sclera, below the Tenon's capsule, and slightly posterior of the equator of the rabbit eyes. […] Given the fact that the Tenon's capsule of a New Zealand White rabbit is very thin, these beneficial results are highly unexpected. It is important to note that Tenon's capsule 34 of human eye 10 is also very thin. […]

Regarding `CC(=O)OCC(=O)[C@@]1(O)CC[C@H]2[C@@H]3CCC4=CC(=O)CC[C@]4(C)C3=CC[C@@]21C` [4,9(11)-Pregnadien-17α,21-diol-3,20-dione-21-acetate], the “concentration of the angiostatic steroid, averaged over the entire retina, relative to a depot located below the conjunctiva but above the Tenon's capsule” value is listed as “about ten times greater”.
